ChEMBL document CHEMBL5346863, “Discovery of substituted benzyloxy-benzylamine inhibitors of acetyltransferase Eis and their anti-mycobacterial activity” (Eur J Med Chem, 2022)
Converted amounts (≈) assume the structure as drawn. The source made the active and inactive calls. No cut-off for these calls is given here.

Columns and labels:
[1] = system: Mycolicibacterium smegmatis; experiment: Antibacterial activity against Mycobacterium smegmatis mc2 122 assessed as bacterial growth inhibition incubated for 2 to 3 weeks by resazurin dye based assay; assay type: functional; conditions: time 2-3 weeks
A549 = experiment: Cytotoxicity against human A549 cells upto 12.5 uM incubated for 24 hrs by resazurin dye based cell viability assay; assay type: toxicity; conditions: a549, 24 h
N-acetyltransferase Eis = biological target: T1, N-acetyltransferase Eis (Mycobacterium tuberculosis (strain ATCC 25618 / H37Rv), UniProt P9WFK7); experiment: Inhibition of wild-type Mycobacterium tuberculosis Eis expressed in Escherichia coli BL21(DE3) cells incubated for 5 mins by Ellman's method
T1 sequence (P9WFK7 whole entry): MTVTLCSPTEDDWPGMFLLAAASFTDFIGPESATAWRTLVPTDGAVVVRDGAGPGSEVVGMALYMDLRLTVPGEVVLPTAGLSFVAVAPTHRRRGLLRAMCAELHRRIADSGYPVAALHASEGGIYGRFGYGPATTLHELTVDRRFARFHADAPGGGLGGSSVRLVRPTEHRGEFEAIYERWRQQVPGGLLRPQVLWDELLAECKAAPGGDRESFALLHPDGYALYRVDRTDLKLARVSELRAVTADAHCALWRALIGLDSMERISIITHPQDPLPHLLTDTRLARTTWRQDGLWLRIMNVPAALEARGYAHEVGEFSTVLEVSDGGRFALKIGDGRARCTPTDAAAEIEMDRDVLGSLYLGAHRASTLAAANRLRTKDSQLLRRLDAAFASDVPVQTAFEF

[2] = system: Mycobacterium intracellulare; experiment: Antibacterial activity against Mycobacterium intracellulare ATCC 13950 assessed as bacterial growth inhibition incubated for 2 to 3 weeks by resazurin dye based assay; assay type: functional; conditions: time 2-3 weeks
Mycobacterium avium = experiment: Antibacterial activity against Mycobacterium avium ATCC 25291 assessed as bacterial growth inhibition incubated for 2 to 3 weeks by resazurin dye based assay; assay type: functional; conditions: time 2-3 weeks
J774.1 = experiment: Cytotoxicity against mouse J774.1 cells upto 12.5 uM incubated for 24 hrs by resazurin dye based cell viability assay; assay type: toxicity; conditions: j774.1, 24 h
HEK293 = experiment: Cytotoxicity against HEK293 cells upto 12.5 uM incubated for 24 hrs by resazurin dye based cell viability assay; assay type: toxicity; conditions: human, hek293, 24 h
[3] = system: Mycobacterium tuberculosis; experiment: Antibacterial activity against Mycobacterium tuberculosis H37Ra assessed as bacterial growth inhibition incubated 2 to 3 weeks by resazurin dye based assay; assay type: functional; conditions: time 2-3 weeks
[4] = system: Mycobacterium tuberculosis; experiment: Antibacterial activity against Mycobacterium tuberculosis H37Rv assessed as MIC of kanamycin A at 100 uM incubated for 24 hrs followed by kanamycin A addition measured after 6 days by alamarblue dye based assay; assay type: functional; conditions: for Activity: time 7.0 day; for MIC: 168 h, time 7 day
[5] = system: Mycobacterium tuberculosis; experiment: Antibacterial activity against Mycobacterium tuberculosis mc2 6230 assessed as bacterial growth inhibition incubated 2 to 3 weeks by resazurin dye based assay; assay type: functional; conditions: time 2-3 weeks
[6] = system: Mycobacterium parascrofulaceum; experiment: Antibacterial activity against Mycobacterium parascrofulaceum ATCC BAA-614 assessed as bacterial growth inhibition incubated for 2 to 3 weeks by resazurin dye based assay; assay type: functional; conditions: time 2-3 weeks
[7] = system: Mycobacteroides abscessus; experiment: Antibacterial activity against Mycobacterium abscessus ATCC 19977 assessed as bacterial growth inhibition incubated for 2 to 3 weeks by resazurin dye based assay; assay type: functional; conditions: time 2-3 weeks

In the case of `Clc1ccc(COc2ccccc2CNCc2ccccc2)cc1`, the MIC [1] is reported as 31.3 µM (≈ 10.6 µg/mL), the Activity (A549) is reported as “Non-Toxic” and the IC50 (N-acetyltransferase Eis) is reported as 5.4 µM. The MIC [2] was 31.3 µM (≈ 10.6 µg/mL), the MIC (Mycobacterium avium) was > 62.5 µM and the Activity (J774.1) was “Non-Toxic”. The Activity (HEK293) was “Non-Toxic”, the MIC [3] was 31.3 µM (≈ 10.6 µg/mL) and the Activity [4] was “Active”. It also gave an MIC [5] of 50 µM (≈ 16.9 µg/mL) and an MIC [6] of 31.3 µM (≈ 10.6 µg/mL).
In the case of `NCC[C@H](O)C(=O)N[C@@H]1C[C@H](N)[C@@H](O[C@H]2O[C@H](CN)[C@@H](O)[C@H](O)[C@H]2O)[C@H](O)[C@H]1O[C@H]1O[C@H](CO)[C@@H](O)[C@H](N)[C@H]1O` [AMIKACIN], the MIC [1] is reported as ≤ 0.25 µM, the MIC [2] is reported as ≤ 0.25 µM and the MIC [7] is reported as 1 µM (≈ 0.586 µg/mL). For the same compound, the MIC (Mycobacterium avium) was 3.9 µM (≈ 2.28 µg/mL) and the MIC [6] was 0.25 µM (≈ 0.146 µg/mL).
In the case of `c1ccc(CNCc2ccc(OCc3ccccc3)cc2)cc1`, the IC50 (N-acetyltransferase Eis) is reported as > 200 µM, the MIC [2] is reported as 15.6 µM (≈ 4.73 µg/mL) and the MIC [7] is reported as > 62.5 µM. The MIC (Mycobacterium avium) was 62.5 µM (≈ 19 µg/mL), the MIC [3] was 62.5 µM (≈ 19 µg/mL) and the MIC [5] was 100 µM (≈ 30.3 µg/mL). For the same compound, the MIC [6] was 3.9 µM (≈ 1.18 µg/mL).
With `Clc1cccc(COc2ccccc2CNCc2ccccc2)c1` the MIC [1] was 62.5 µM (≈ 21.1 µg/mL), the Activity (A549) was “Non-Toxic” and the IC50 (N-acetyltransferase Eis) was 6.5 µM. The MIC [7] was 31.3 µM (≈ 10.6 µg/mL), the MIC (Mycobacterium avium) was > 62.5 µM and the Activity (J774.1) was “Non-Toxic”. For the same compound, the Activity (HEK293) was “Non-Toxic”, the MIC [3] was 31.3 µM (≈ 10.6 µg/mL) and the Activity [4] was “Active”. For the same compound, the MIC [5] was 50 µM (≈ 16.9 µg/mL).
For `c1ccc(CNCc2ccc(OCc3ccc(-c4ccccc4)cc3)cc2)cc1`, the IC50 (N-acetyltransferase Eis) was > 200 µM, the MIC [2] was 7.8 µM (≈ 2.96 µg/mL) and the MIC [7] was 7.8 µM (≈ 2.96 µg/mL). For the same compound, the MIC (Mycobacterium avium) was > 62.5 µM, the MIC [3] was 2 µM (≈ 0.759 µg/mL) and the MIC [5] was 12.5 µM (≈ 4.74 µg/mL). For the same compound, the MIC [6] was 15.6 µM (≈ 5.92 µg/mL).
In the case of `Brc1ccc(COc2ccccc2CNCc2ccncc2)cc1`, the MIC [1] is reported as > 62.5 µM, the IC50 (N-acetyltransferase Eis) is reported as 4.3 µM and the MIC [7] is reported as > 62.5 µM. The MIC (Mycobacterium avium) was > 62.5 µM, the MIC [4] was ≤ 1.25 mg/L and the MIC [5] was 25 µM (≈ 9.58 µg/mL).
With `c1ccc(COc2ccccc2CNCc2cccnc2)cc1` the MIC [1] was > 62.5 µM, the IC50 (N-acetyltransferase Eis) was ~50 µM and the MIC [2] was > 62.5 µM. For the same compound, the MIC [7] was > 62.5 µM, the MIC (Mycobacterium avium) was > 62.5 µM and the MIC [3] was > 250 µM. For the same compound, the MIC [4] was 2.5 mg/L, the MIC [5] was > 100 µM and the MIC [6] was > 62.5 µM.
In the case of `Fc1ccc(COc2cccc(CNCc3cccnc3)c2)cc1`, the MIC [1] is reported as > 62.5 µM, the IC50 (N-acetyltransferase Eis) is reported as 6.4 µM and the MIC [2] is reported as > 62.5 µM. The MIC [7] was > 62.5 µM, the MIC (Mycobacterium avium) was > 62.5 µM and the MIC [3] was 62.5 µM (≈ 20.1 µg/mL). The MIC [4] was ≤ 1.25 mg/L, the MIC [5] was 100 µM (≈ 32.2 µg/mL) and the MIC [6] was > 62.5 µM.
For `c1ccc(COc2ccccc2CNCc2ccncc2)cc1`, the MIC [1] was > 62.5 µM, the IC50 (N-acetyltransferase Eis) was ~40 µM and the MIC [2] was > 62.5 µM. The MIC [7] was > 62.5 µM, the MIC (Mycobacterium avium) was > 62.5 µM and the MIC [3] was 125 µM (≈ 38 µg/mL). The MIC [4] was 2.5 mg/L, the MIC [5] was > 100 µM and the MIC [6] was 62.5 µM (≈ 19 µg/mL).
Compound `CC(C)c1ccc(COc2ccc(CNCc3ccccc3)cc2)cc1` has an MIC [1] of 3.9 µM (≈ 1.35 µg/mL), an IC50 (N-acetyltransferase Eis) of 1.4 µM and an MIC [2] of 2 µM (≈ 0.691 µg/mL). For the same compound, the MIC [7] was 7.8 µM (≈ 2.69 µg/mL), the MIC (Mycobacterium avium) was 15.6 µM (≈ 5.39 µg/mL) and the MIC [3] was ≤ 0.5 µM. It also gave an MIC [5] of 0.78 µM (≈ 0.269 µg/mL).
`c1ccc(COc2ccc(CNCc3cccnc3)cc2)cc1` was tested, and the MIC [1] was > 62.5 µM, the IC50 (N-acetyltransferase Eis) was ~40 µM and the MIC [2] was 31.3 µM (≈ 9.53 µg/mL). The MIC [7] was > 62.5 µM, the MIC (Mycobacterium avium) was 31.3 µM (≈ 9.53 µg/mL) and the MIC [3] was 31.3 µM (≈ 9.53 µg/mL). For the same compound, the MIC [5] was 100 µM (≈ 30.4 µg/mL).
`Brc1ccc(COc2ccc(CNCc3ccccc3)cc2)cc1` gave an MIC [1] of 7.8 µM (≈ 2.98 µg/mL), an IC50 (N-acetyltransferase Eis) of 1.5 µM and an MIC [2] of 15.6 µM (≈ 5.96 µg/mL). It also gave an MIC [7] of 15.6 µM (≈ 5.96 µg/mL), an MIC (Mycobacterium avium) of 62.5 µM (≈ 23.9 µg/mL) and an MIC [3] of 7.8 µM (≈ 2.98 µg/mL). For the same compound, the MIC [5] was 12.5 µM (≈ 4.78 µg/mL) and the MIC [6] was 7.8 µM (≈ 2.98 µg/mL).
In the case of `Fc1ccc(COc2ccc(CNCc3ccccc3)cc2)cc1`, the MIC [1] is reported as > 62.5 µM, the IC50 (N-acetyltransferase Eis) is reported as > 200 µM and the MIC [2] is reported as > 62.5 µM. The MIC [7] was > 62.5 µM, the MIC (Mycobacterium avium) was > 62.5 µM and the MIC [3] was > 250 µM. The MIC [5] was > 100 µM and the MIC [6] was > 62.5 µM.
Compound `Fc1ccc(COc2cccc(CNCc3ccccc3)c2)cc1` has an IC50 (N-acetyltransferase Eis) of 7.3 µM, an MIC [7] of 31.3 µM (≈ 10.1 µg/mL) and an MIC (Mycobacterium avium) of 15.6 µM (≈ 5.01 µg/mL). The MIC [3] was 3.9 µM (≈ 1.25 µg/mL) and the MIC [5] was 50 µM (≈ 16.1 µg/mL).
